This note sets out measurements from patent US20150225369A1, “DDR2 INHIBITORS FOR THE TREATMENT OF OSTEOARTHRITIS” (Merck Patent GmbH, priority 2012, published 2015).

pIC50: −log10 of the molar value.

The first experiment concerns the target T1, His-tagged human recombinant DDR-2 kinase domain (His-TEV-DDR2 467-855 aa) (Homo sapiens, UniProt Q16832).
T1 construct: His-TEV-DDR2 467-855 aa
T1 sequence (Q16832 467-855): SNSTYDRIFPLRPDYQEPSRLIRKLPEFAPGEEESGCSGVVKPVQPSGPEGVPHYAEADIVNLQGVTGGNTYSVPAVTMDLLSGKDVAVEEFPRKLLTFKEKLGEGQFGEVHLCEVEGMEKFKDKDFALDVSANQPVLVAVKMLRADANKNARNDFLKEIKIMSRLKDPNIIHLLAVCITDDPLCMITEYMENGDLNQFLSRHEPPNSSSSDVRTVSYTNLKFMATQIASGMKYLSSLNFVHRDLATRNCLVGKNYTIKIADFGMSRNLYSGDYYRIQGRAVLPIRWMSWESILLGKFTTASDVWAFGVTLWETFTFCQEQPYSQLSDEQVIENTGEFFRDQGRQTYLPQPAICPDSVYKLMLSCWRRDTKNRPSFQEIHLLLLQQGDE
The experiment is described as follows: Autophosphorylation assay for biochemical activity testing of DDR2 (HTRF). Particulars: 4 nM DDR2 kinase domain, 150 μM ATP, 150 min at 22° C. The method in brief: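 Phospho-tyrosine was detected by HTRF between XL665 anti-6His and cryptate anti-phosphotyrosine PT66 antibodies, using the emission ratio. Inhibition was referenced to the inhibitor-free reaction.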
(Time-resolved FRET reads energy transfer from a long-lived donor to a nearby acceptor.)
As usually defined, the pIC50 is −log10 of the IC50, conventionally taken in molar units. On to `CNC(=O)c1cc(Oc2ccc(CNC(=O)Nc3ccc(C)cn3)cc2C)ccn1` [compound 13], for which the pIC50 was 6.11.

Consider `Cc1cc(Oc2ccc(CNC(=O)Nc3cnc4ccccc4c3)cc2C)ccn1` [compound 32], for which the pIC50 is 5.15.

For the compound `CNC(=O)c1cc(Oc2ccc(CNC(=O)Nc3cc4ccccc4nc3OC)cc2)ccn1` [compound 11], the pIC50 is 6.72.

In the case of `CNC(=O)c1cc(Oc2ccc(COC(=O)Nc3cc(C(F)(F)F)ccn3)cc2C)ccn1` [compound 4], the negative-log IC50 (pIC50) is 7.39.

Regarding `CNC(=O)c1cc(Oc2ccc(CNC(=O)Nc3ccc(C)cn3)cc2)ccn1` [compound 12], the pIC50 was 5.70.

In the case of `Cn1cc(C(F)(F)F)cc(NC(=O)NCc2ccc(Oc3ccnc4ccccc34)cc2)c1=O` [compound 9], the pIC50 is 7.29.

For the compound `CNC(=O)c1cc(Oc2ccc(CNC(=O)Nc3ncc(C(F)(F)F)cc3Cl)cc2)ccn1` [compound 7], the pIC50 was 5.18.

The same experiment, now with this note: Table 6; 4 nM DDR2 kinase domain, 150 μM ATP.
On to `CNC(=O)c1cc(Oc2ccc(CCC(=O)Nc3ccc(Cl)c(C(F)(F)F)c3)cc2C)ccn1` [compound 3], for which the negative-log IC50 (pIC50) is 5.80.

Still in this experiment, the particulars now being: biochemical DDR2 autophosphorylation.
Regarding `CNC(=O)c1cc(Oc2ccc(CNC(=O)Nc3cc(C(F)(F)F)c(Cl)cc3OCCN(C)C)cc2)ccn1` [compound 95, 4-(4-{3-[4-Chloro-2-(2-dimethylamino-ethoxy)-5-trifluoromethyl-phenyl]-ureidomethyl}-phenoxy)-pyridine-2-carboxylic acid methylamide], the negative-log IC50 (pIC50) is 7.09.

As to `O=C(NCc1ccc(Oc2ccncc2)cc1)Nc1cccc(OC(F)(F)F)c1` [compound 65, 1-[4-(Pyridin-4-yloxy)-benzyl]-3-(3-trifluoromethoxy-phenyl)-urea], the negative logarithm of the IC50 (pIC50) is 7.46.

Take `CNC(=O)c1cc(Oc2ccc(CNC(=O)Nc3cc(C(F)(F)F)ccc3OC)cc2)ccn1` [compound 63, 4-{4-[3-(2-Methoxy-5-trifluoromethyl-phenyl)-ureidomethyl]-phenoxy}-pyridine-2-carboxylic acid methylamide]: the negative logarithm of the IC50 (pIC50) was 7.21.

For `O=C(NCc1ccc(Oc2ccncc2)cc1)Nc1ccc(Cl)cc1Cl` [compound 5], the pIC50 is 5.85.

Take `CNC(=O)c1cc(Oc2ccc(CNC(=O)Nc3cc(C)c(Cl)cc3OCCCCN(C)C)cc2C)ccn1` [compound 165, 4-(4-{3-[4-Chloro-2-(4-dimethylamino-butoxy)-5-methyl-phenyl]-ureidomethyl}-2-methyl-phenoxy)-pyridine-2-carboxylic acid methylamide]: the pIC50 was 6.68.

With `O=C(NCc1ccc(Oc2ccncc2)cc1)Nc1ccc(Br)cc1Cl` [compound 35, 1-(4-Bromo-2-chloro-phenyl)-3-[4-(pyridin-4-yloxy)-benzyl]-urea], the pIC50 was 5.02.

Take `CNC(=O)c1cc(Oc2ccc(CNC(=O)Nc3cc(Cl)c(C)cc3OCCN)cc2)ccn1` [compound 176, 4-(4-{3-[2-(2-Amino-ethoxy)-5-chloro-4-methyl-phenyl]-ureidomethyl}-phenoxy)-pyridine-2-carboxylic acid methylamide]: the pIC50 was 7.57.

`CNC(=O)c1cc(Oc2ccc(CNC(=O)Nc3cc(C(F)(F)F)ccc3OCC(=O)O)cc2)ccn1` [compound 94, (2-{3-[4-(2-Methylcarbamoyl-pyridin-4-yloxy)-benzyl]-ureido}-4-trifluoromethyl-phenoxy)-acetic acid]: the negative logarithm of the IC50 (pIC50) was 5.80.

As to `CSc1cccc(NC(=O)NCc2ccc(Oc3ccncc3)cc2)c1` [compound 34], the pIC50 is 5.26.

On to `COc1cc(Cl)c(C)cc1NC(=O)NCc1ccc(Oc2ccnc(C(=O)NCCN)c2)cc1` [compound 123, 4-{4-[3-(4-Chloro-2-methoxy-5-methyl-phenyl)-ureidomethyl]-phenoxy}-pyridine-2-carboxylic acid (2-amino-ethyl)-amide], for which the pIC50 was 5.51.

For `CNC(=O)c1cc(Oc2ccc(CNC(=O)Nc3cc(C(F)(F)F)c(Cl)cc3OCC(=O)OC(C)C)cc2)ccn1` [compound 114, (5-Chloro-2-{3-[4-(2-methylcarbamoyl-pyridin-4-yloxy)-benzyl]-ureido}-4-trifluoromethyl-phenoxy)-acetic acid isopropyl ester], the negative logarithm of the IC50 (pIC50) was 7.62.

For the compound `CNC(=O)c1cc(Oc2ccc(CNC(=O)Nc3cc(C(F)(F)F)ccc3OCCNS(C)(=O)=O)cc2)ccn1` [compound 180, 4-(4-{3-[2-(2-Methanesulfonylamino-ethoxy)-5-trifluoromethyl-phenyl]-ureidomethyl}-phenoxy)-pyridine-2-carboxylic acid methylamide], the pIC50 was 7.49.

On to `CNC(=O)c1cc(Oc2ccc(CNC(=O)Nc3cccnc3OC)cc2)ccn1` [compound 87, 4-{4-[3-(2-Methoxy-pyridin-3-yl)-ureidomethyl]-phenoxy}-pyridine-2-carboxylic acid methylamide], for which the pIC50 was 5.80.

On to `CNC(=O)c1cc(Oc2ccc(CNC(=O)Nc3cc(C)c(Cl)cc3OCCN3CCCC3)c(C)c2)ccn1` [compound 134, 4-(4-{3-[4-Chloro-5-methyl-2-(2-pyrrolidin-1-yl-ethoxy)-phenyl]-ureidomethyl}-3-methyl-phenoxy)-pyridine-2-carboxylic acid methylamide], for which the negative-log IC50 (pIC50) was 5.92.

As for `COc1cc(Cl)c(C)cc1NC(=O)NCc1ccc(Oc2ccncc2)c(C)c1` [compound 248, 1-(4-Chloro-2-methoxy-5-methyl-phenyl)-3-[3-methyl-4-(pyridin-4-yloxy)-benzyl]-urea], the negative logarithm of the IC50 (pIC50) is 6.11.

Take `CNC(=O)c1cc(Oc2ccc(CNC(=O)Nc3cc(C(F)(F)F)ccc3OC)c(C)c2)ccn1` [compound 105, 4-{4-[3-(2-Methoxy-5-trifluoromethyl-phenyl)-ureidomethyl]-3-methyl-phenoxy}-pyridine-2-carboxylic acid methylamide]: the negative logarithm of the IC50 (pIC50) is 6.74.

`Cc1cc(NC(=O)NCc2ccc(Oc3ccnc(N)c3)c(C)c2)c(OCCN(C)C)cc1Cl` [compound 254, 1-[4-(2-Amino-pyridin-4-yloxy)-3-methyl-benzyl]-3-[4-chloro-2-(2-dimethylamino-ethoxy)-5-methyl-phenyl]-urea]: the negative-log IC50 (pIC50) is 7.51.

For the compound `COc1cccc(NC(=O)NCc2ccc(Oc3ccncc3)cc2)c1` [compound 45, 1-(3-Methoxy-phenyl)-3-[4-(pyridin-4-yloxy)-benzyl]-urea], the negative-log IC50 (pIC50) is 5.40.

As to `CNCCOc1cc(Cl)c(C(F)(F)F)cc1NC(=O)NCc1ccc(Oc2ccnc(C(=O)NC)c2)c(C)c1` [compound 147, 4-(4-{3-[4-Chloro-2-(2-methylamino-ethoxy)-5-trifluoromethyl-phenyl]-ureidomethyl}-2-methyl-phenoxy)-pyridine-2-carboxylic acid methylamide], the negative-log IC50 (pIC50) is 7.39.

As for `O=C(NCc1ccc(Oc2ccncc2)cc1)Nc1ccccc1Cl` [compound 33], the pIC50 was not above 4.00.

On to `Cc1cc2nccc(Oc3ccc(CNC(=O)Nc4ccccc4)cc3)c2o1` [compound 249, 1-[4-(2-Methyl-furo[3,2-b]pyridin-7-yloxy)-benzyl]-3-phenyl-urea], for which the negative-log IC50 (pIC50) was 6.19.

Regarding `CNC(=O)c1cc(Oc2ccc(CNC(=O)Nc3cc(C(F)(F)F)ccc3OC)cc2F)ccn1` [compound 217, 4-{2-Fluoro-4-[3-(2-methoxy-5-trifluoromethyl-phenyl)-ureidomethyl]-phenoxy}-pyridine-2-carboxylic acid methylamide], the negative-log IC50 (pIC50) was 7.68.

As to `CNC(=O)c1cc(Oc2ccc(CNC(=O)Nc3cc(C(F)(F)F)ccc3OCCOC)cc2)ccn1` [compound 166, 4-(4-{3-[2-(2-Methoxy-ethoxy)-5-trifluoromethyl-phenyl]-ureidomethyl}-phenoxy)-pyridine-2-carboxylic acid methylamide], the pIC50 was 6.85.

Turning to `CNC(=O)c1cc(Oc2ccc(CNC(=O)Nc3cc(OC)ccc3OC)cc2)ccn1` [compound 20], the negative logarithm of the IC50 (pIC50) is 7.01.

With `Cc1ccc(NC(=O)NCc2ccc(Oc3ccncc3)cc2)cc1` [compound 18], the pIC50 is 5.39.

On to `CNC(=O)c1cc(Oc2ccc(CNC(=O)Nc3cc(C)c(Cl)cc3OCCN3CCCC3)cc2C)ccn1` [compound 137, 4-(4-{3-[4-Chloro-5-methyl-2-(2-pyrrolidin-1-yl-ethoxy)-phenyl]-ureidomethyl}-2-methyl-phenoxy)-pyridine-2-carboxylic acid methylamide], for which the negative logarithm of the IC50 (pIC50) was 6.85.

Turning to `CNC(=O)c1cc(Oc2ccc(CNC(=O)Nc3ccccc3OCCCN(C)C)cc2)ccn1` [compound 86, 4-(4-{3-[2-(3-Dimethylamino-propoxy)-phenyl]-ureidomethyl}-phenoxy)-pyridine-2-carboxylic acid methylamide], the pIC50 was 5.92.

In the case of `CNC(=O)c1cc(Oc2ccc(CNC(=O)Nc3ccc(C(=O)OC)cc3OC)cc2)ccn1` [compound 82, 3-Methoxy-4-{3-[4-(2-methylcarbamoyl-pyridin-4-yloxy)-benzyl]-ureido}-benzoic acid methyl ester], the pIC50 was 5.54.

Regarding `CNC(=O)c1cc(Oc2ccc(CNC(=O)Nc3cc(C)c(Cl)cc3OCCNS(C)(=O)=O)cc2)ccn1` [compound 193, 4-(4-{3-[4-Chloro-2-(2-methanesulfonylamino-ethoxy)-5-methyl-phenyl]-ureidomethyl}-phenoxy)-pyridine-2-carboxylic acid methylamide], the pIC50 is 6.74.
